Among the data in PubChem BioAssay AID1963985 (Molecular Pharmacology Branch, DTP, NCI, 2024) are IC50 and viability, T/C values, retold here.

“And” between values parts separate entries of the source, which are not always exact repeats. Identical values can stand only once. Bounds are passed on as bounds.

The assay concerns 252836-082-R-J2-PDC tumor spheroids, viability. The experiment in a line: Anticancer human tumor 252836-082-R-J2-PDC patient-derived head and neck squamous cell carcinoma cell line growth inhibition [PI3K]. The settings on record: spheroids with HUVEC and MSC; for IC50: curve of first compound; for viability, T/C: stronger effect = lower value. Summed up: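 Combination activity was assessed by viability in multicellular tumor spheroids carrying HUVEC and MSC components. Agents were tested with PI3K inhibitors from a Cmax-based top dose (or 10 microM) downward in half-log increments.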
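Note: spheroids exposed to agents for seven days before readout.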
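Throughout, for viability, T/C: percent of vehicle DMSO control viability so 100% = untreated growth.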

With `Cn1cnc2c(F)c(Nc3ccc(Br)cc3Cl)c(C(=O)NOCCO)cc21` + Cc1nc(NC(=O)N2CCCC2C(N)=O)sc1-c1ccnc(C(C)(C)C(F)(F)F)c1, the IC50 (usually the midpoint of a concentration-inhibition curve) is > 3 µM (second compound 0.0316 µM); 2.41 µM (second compound 0.1 µM); 1.46 µM (second compound 0.316 µM); 0.554 µM (second compound 1 µM); < 0.00949 µM (second compound 3.16 µM); < 0.00949 µM (second compound 10 µM). Also, the viability, T/C (as a rule, the ratio of treated to control) is, setting by setting: (second compound 0.0316 µM, first compound 0.00949 µM) 93%; (second compound 0.0316 µM, first compound 0.03 µM) 67.1%; (second compound 0.0316 µM, first compound 0.0949 µM) 83%; (second compound 0.0316 µM, first compound 0.3 µM) 82.7%; (second compound 0.0316 µM, first compound 0.949 µM) 61.2%; (second compound 0.0316 µM, first compound 3 µM) 58.4%. Further, the viability, T/C was 79.9% (second compound 0.1 µM, first compound 0.00949 µM); 74.5% (second compound 0.1 µM, first compound 0.03 µM); 73.3% (second compound 0.1 µM, first compound 0.0949 µM); 85.1% (second compound 0.1 µM, first compound 0.3 µM); 67.9% (second compound 0.1 µM, first compound 0.949 µM); 45.4% (second compound 0.1 µM, first compound 3 µM). For the same molecule, the viability, T/C was 66.9% (second compound 0.316 µM, first compound 0.00949 µM); 68.1% (second compound 0.316 µM, first compound 0.03 µM); 65.2% (second compound 0.316 µM, first compound 0.0949 µM); 68.3% (second compound 0.316 µM, first compound 0.3 µM); 55.7% (second compound 0.316 µM, first compound 0.949 µM); 37.5% (second compound 0.316 µM, first compound 3 µM). Moreover, the viability, T/C (second compound 1 µM, first compound 0.00949 µM) is 61.7%; the viability, T/C (second compound 1 µM, first compound 0.03 µM) was 50.1%; the viability, T/C (second compound 1 µM, first compound 0.0949 µM) is 51%; the viability, T/C (second compound 1 µM, first compound 0.3 µM) was 47.6%; the viability, T/C (second compound 1 µM, first compound 0.949 µM) is 50.1%; the viability, T/C (second compound 1 µM, first compound 3 µM) is 28.9%. Moreover, the viability, T/C is, setting by setting: (second compound 3.16 µM, first compound 0.00949 µM) 45.8%; (second compound 3.16 µM, first compound 0.03 µM) 45.6%; (second compound 3.16 µM, first compound 0.0949 µM) 32.2%; (second compound 3.16 µM, first compound 0.3 µM) 35.8%; (second compound 3.16 µM, first compound 0.949 µM) 25.8%; (second compound 3.16 µM, first compound 3 µM) 13.8%. The viability, T/C is, setting by setting: (second compound 10 µM, first compound 0.00949 µM) 26.7%; (second compound 10 µM, first compound 0.03 µM) 29.4%; (second compound 10 µM, first compound 0.0949 µM) 25.8%; (second compound 10 µM, first compound 0.3 µM) 19.4%; (second compound 10 µM, first compound 0.949 µM) 14.2%; (second compound 10 µM, first compound 3 µM) 5.98%.
For `Cn1cnc2c(F)c(Nc3ccc(Br)cc3Cl)c(C(=O)NOCCO)cc21`, the viability, T/C was 80.3% and 86.2% (2×) and 89.4% (compound 0.00949 µM); 93.8% [middle of 4 runs] (compound 0.03 µM); 81.6% [middle of 4 runs] (compound 0.0949 µM); 86.9% [middle of 4 runs] (compound 0.3 µM); 72.7% [middle of 4 runs] (compound 0.949 µM); 49.5% [middle of 4 runs] (compound 3 µM).
